From paper PMC10816272, “Comparative Structure-Based Virtual Screening Utilizing Optimized AlphaFold Model Identifies Selective HDAC11 Inhibitor” (International Journal of Molecular Sciences, 2024)
pIC50: −log10 of the molar value.

Molecular target: T1, HDAC11 (Homo sapiens, UniProt Q96DB2)
T1 construct: full-length human
T1 sequence (Q96DB2 1-347): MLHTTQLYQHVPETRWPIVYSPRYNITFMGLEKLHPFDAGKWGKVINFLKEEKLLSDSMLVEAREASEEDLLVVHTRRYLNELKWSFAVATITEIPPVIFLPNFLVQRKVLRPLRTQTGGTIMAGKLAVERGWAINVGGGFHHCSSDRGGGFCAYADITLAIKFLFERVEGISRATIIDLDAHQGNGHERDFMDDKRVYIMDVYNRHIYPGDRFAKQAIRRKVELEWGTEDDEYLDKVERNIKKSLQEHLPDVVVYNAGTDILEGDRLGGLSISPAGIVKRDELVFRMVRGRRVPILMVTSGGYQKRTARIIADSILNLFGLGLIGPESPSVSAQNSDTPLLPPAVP
Test: biochemical
Parameters: continuous fluorescence deacylase assay with fatty acid-acylated TNFα-derived peptide substrate
Procedure: In the case of HDAC11, the full-length human was expressed and purified as described in previous work. A fluorescence-based HDAC11 assay was used. The fluorescence measurements were performed using a PerkinElmer Envision 2104 multilabel plate reader (Waltham, MA, USA) at λex = 320 nm and λem = 430 nm. The reaction mixture consisted of HDAC11 and the fatty acid-acylated peptide substrate derived from TNFα in a reaction buffer—comprising 50 mM HEPES, 2 mg/mL BSA, and 70 µM TCEP—at pH 7.4, which was adjusted with NaOH (total volume 40 μL). The reactions were incubated in black 384-well plates for 30 min (scan every 30 s) at room temperature, and the increase in relative fluorescence reflecting the product formation was monitored. Positive (HDAC11, substrate, DMSO, and buffer) and negative controls (substrate, DMSO, and vuffer) were included in every measurement.

## Nc1ccccc1NC(=O)c1ccc(CNC(=O)OCc2cccnc2)cc1 [Entinostat]
  pIC50: < 4.70
